One series concerns MDCK. Kind of series: (§1) Cytotoxicity against MDCK cells assessed as reduction in cell viability after 72 hrs by MTS assay. The series is classed as cell-based, Canis lupus familiaris. As to conditions: dog, mdck, 72 h. Background: Tetrazolium dyes change colour on reduction, which living cells bring about.
The nature of series [1]: Antiviral activity against Influenza A virus A//HK/7/87 (H3N2) expressing wild-type M2 proton channel infected in MDCK cells assessed as reduction in viral yield after 24 hrs by RT-qPCR method. The series is classed as functional, Influenza A virus (A/Hong Kong/7/1987(H3N2)). (In general: In qPCR the cycle at which signal appears reflects the starting amount.)
A short description of series [2]: Antiviral activity against Influenza A virus A//HK/7/87 (H3N2) expressing wild-type M2 proton channel infected in MDCK cells assessed as reduction in plaque formation preincubated with virus for 1 hr followed by addition to cells measured after 72 hrs by crystal violet staining based assay. The class given is functional, cell-based, Influenza A virus (A/Hong Kong/7/1987(H3N2)).

The target of series [3] is Matrix protein 2 (Influenza A virus (A/Udorn/307/1972(H3N2))) (UniProt P0DOF8). The class given is cell-based. The settings on record: Influenza A virus (A/udorn/1972(H3N2)); 100 uM.
Chain of Matrix protein 2 (Influenza A virus (A/Udorn/307/1972(H3N2))) (P0DOF8 whole entry): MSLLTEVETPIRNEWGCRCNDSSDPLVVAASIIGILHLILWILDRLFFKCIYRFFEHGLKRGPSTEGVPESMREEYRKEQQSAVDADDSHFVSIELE
Series [4] has the same target. The series is classed as cell-based. The settings on record: Influenza A virus (A/udorn/1972(H3N2)); 100 uM. This is another data set of the same source.
The nature of series [5]: Antiviral activity against Influenza A virus (A2 Japan/305/57) H2N2 infected in MDCK cells assessed as reduction of virus-induced cytopathic effect after 4 to 5 days by MTS assay. The class given is functional, cell-based, Influenza A virus (A/Japan/305/1957(H2N2)).
Series [6] in a line: as §1. The series is classed as cell-based, Canis lupus familiaris. The settings on record: dog, MDCK cells.

The values below come from ChEMBL document CHEMBL4049445.

What is called CC50 is the concentration giving 50% cytotoxicity. In general, EC99 refers to the concentration needed for an effect of 99%. What is called EC50 is the midpoint of the concentration-response curve. Broadly, the inhibition is the percentage by which the read-out fell short of the control.

Consider `C1CC(C23CC4CC(CC(C4)C2)C3)CCN1`, for which, in the series with MDCK, the half-maximal cytotoxic concentration (CC50) was 18 µM. In addition, the EC99 in series [1] is at least 1.7 µM. Besides, the EC50 in series [2] amounted to 0.14 µM.

In the case of `CN1CCC(CC2C3CC4CC(C3)CC2C4)CC1` (stereo not drawn), the CC50 in the series with MDCK was determined as 6.2 µM. Besides, in series [1], the EC99 was above 2 µM. Also, the EC50 in series [2] is above 10 µM.

As for `OC1(CC2CCNCC2)C2CC3CC(C2)CC1C3` (stereo not drawn), the CC50 with MDCK was above 50 µM. Besides, the EC99 in series [1] was above 50 µM. In series [2], the EC50 was determined as 10 µM.

As to `C1CC(C2C3CC4CC(C3)CC2C4)CCN1` (stereo not drawn), the CC50 in the series on MDCK is above 100 µM. The EC99 in series [1] is at least 50 µM.

For `OC1(C2CCNCC2)C2CC3CC(C2)CC1C3` (stereo not drawn), the inhibition worked out at 25% in series [3] and 30% in series [4]. The CC50 with MDCK was above 100 µM. The EC99 in series [1] amounted to 76 µM. Moreover, the EC50 in series [2] was above 100 µM.

In the case of `C1CC(CC2C3CC4CC(C3)CC2C4)CCN1` (stereo not drawn), the CC50 with MDCK amounted to 15 µM. Further, the EC99 in series [1] is above 2 µM. Further, the EC50 in series [2] was above 10 µM.

With `C1CCC(C23CC4CC(CC(C4)C2)C3)NC1` (stereo not drawn), the CC50 in the series on MDCK is above 100 µM. Besides, the EC99 in series [1] stood at 3.5 µM. Further, the results for the EC50 in series [5] and in series [2] were 3.3 µM and 1 µM, respectively.

Turning to `C(=C1C2CC3CC(C2)CC1C3)C1CCNCC1`, the CC50 at 72 h in series [6] came out at 25 µM. Besides, the EC99 in series [1] is above 10 µM. In series [2], the EC50 is above 5 µM.

Take `NC12CC3CC(CC(C3)C1)C2` [AMANTADINE]: the EC99 in series [1] came out at 0.51 µM. Also, in series [2], the EC50 is 0.14 µM.

As for `N=C(N)N1CCC(C23CC4CC(CC(C4)C2)C3)CC1`, the CC50 in the series with MDCK worked out at 10 µM. Moreover, in series [1], the EC99 was above 2 µM. Further, the EC50 in series [2] is above 50 µM.

For `N=C(N)N1CCC(C=C2C3CC4CC(C3)CC2C4)CC1`, the CC50 at 72 h in series [6] came to 19 µM. The EC99 in series [1] is above 2 µM. In series [2], the EC50 was above 5 µM.

With `N=C(N)N1CCC(CC2C3CC4CC(C3)CC2C4)CC1` (stereo not drawn), the CC50 in the series on MDCK is 3.8 µM. The EC99 in series [1] was above 2 µM. For the same compound, in series [2], the EC50 was above 10 µM.

Consider `CC(N)C12CC3CC(CC(C3)C1)C2` (stereo not drawn) [RIMANTADINE], for which the CC50 with MDCK is above 500 µM. Besides, the EC99 in series [1] is 1.1 µM. For the same compound, the concentration for a half-maximal effect (EC50) in series [2] came to 0.016 µM.

Regarding `CCN1CCC(C2C3CC4CC(C3)CC2C4)CC1` (stereo not drawn), in the series on MDCK, the CC50 turned out to be 25 µM. Besides, the EC99 in series [1] was above 10 µM. In addition, the EC50 in series [2] is above 10 µM.
